Measured values as given in patent US7160733B2, “Ligand specific to β2-glycoprotein I and use thereof” (priority 2001, dated 2007).

What was measured:
WB-CAL-1 = assay: ELISA on solid-phase lipid (ligand)-coated plate: WB-CAL-1 binding in presence of β2-GPI; parameters: species or system mouse
Procedure: (§1) Binding to extracted lipids: A microtiter plate (Immulon 1B, Dynex Technologies Inc.) was coated with lipids extracted from LDLs (50 μg/mL, 50 μL/well) by ethanol evaporation. The wells were blocked with PBS containing 1% BSA for one hour and the wells were incubated with 30 μg/mL of β2-GPI for one hour. Then, β2-GPI binding was detected using Cof-22 and HRP-labeled anti-mouse IgG antibodies. Alternatively, an anti-β2-GPI autoantibody (Cof-22, WB-CAL-1, or EY2C9) was diluted with a 0.3% BSA-containing PBS, and the diluted antibody was added to the coated plate (1.0 μg/mL, 100 μL/well) and incubated with β2-GPI (15 μg/mL) for one hour. The binding of the antibody was detected by an HRP-labeled anti-mouse IgG /or an anti-human IgM. The color was developed with H2O2 and o-phenylenediamine, and OD was measured at 490 nm. Between these steps, extensive washing were done using PBS containing 0.05% Tween 20.
(§2) Synthesized oxLig-1 (50 μg/mL, 50 μL/well) was adsorbed by evaporation on a polystyrene plate (Immulon 1B; Dynex Technologies Inc.), and the plate was then blocked with 1% BSA. Serum samples (diluted 1:100 with PBS containing 0.3% BSA) were incubated in the wells with β2-GPI (15 μg/mL) or other proteins for one hour at room temperature. Antibody binding was detected with HRP-labeled anti-human IgG. Further steps were performed through a method as described in “anti-β2-GPI ELISA.”
(§3) CL (50 μg/mL, 50 μL/well) was adsorbed on a polystyrene plate (Immulon 1B), and further steps were performed through a method as described in “ELISA for antibodies against a protein-oxLig-1 complex.”

APS-1 = assay: ELISA on solid-phase lipid-coated plate: binding of antibodies of APS patient serum APS-1; parameters: species or system human; settings: Experiment 1; Absorbance, mean ± SD, n = 3; solid-phase lipid, β2-GPI 15 μg/mL; serum with β2-GPI removed
Procedure: To eliminate endogenous β2-GPI in some experiments, serum samples were passed through a heparin-Sepharose column. The effluent was dialyzed against PBS and was used for ELISAs.
as §2, §3

anti-β2-GPI antibodies = assay: ELISA of the anti-β2-GPI antibodies by use of a ligand-coated plate (results in words); format: binding; settings: result in words
Procedure: as §1, §2

J774A.1 cells = assay: Liposome binding to macrophages (3H-labeled liposomes, 4° C.); format: cell-based, murine
Procedure: FIG. 10. Effect of phosphatidylserine (PS) or oxLig-1 content on the binding of liposomes to macrophages. A monolayer of J774.A1 cells was incubated for 2 hours at 4° C. with Celgrosser-P medium containing ^3H-labeled liposomes (50 nmol lipid/well). Open circle represents PS-liposomes; closed circle represents PS-Chol-liposomes; open square represents oxLig-1-liposomes; and closed square represents oxLig-1-Chol-liposomes. Data are indicated as the mean± SD of triplicate samples.
FIG. 11. β2-GPI and anti-β2-GPI monoclonal antibody-dependent binding of ligand-containing liposomes to macrophage. A monolayer of J774.A1 cells was incubated for 2 hours at 4° C. with Celgrosser-P medium containing ^3H-labeled liposomes (50 nmol lipid/well) and WB-CAL-1, in the presence or absence of β2-GPI (200 μg/ml). • A: Binding of PS-liposomes (PS: 50 mol %,) to J774.A1. cells in the presence (closed square) or absence (open square) of β2-GPI (200 μg/ml) • B: Binding of oxLig-1-liposomes (oxLig-1: 40 mol %) to J774.A1 cells in the presence (black bar) or absence (white bar) of β2-GPI (200 μg/ml). • C: A monolayer of J774.A1 cells was incubated for 2 hours at 4° C. with Celgrosser-P medium containing ^3H-labeled synthesized oxLig-1-liposomes (50 nmol lipid/well) and WB-CAL-1, in the presence or absence of β2-GPI (200 μg/ml). Binding of synthesized oxLig-1-liposomes in the absence of β2-GPI and WB-CAL-1 (open circle), binding of synthesized oxLig-1-liposomes in the presence of β2-GPI (open square), binding of synthesized oxLig-1-liposomes in the presence of WB-CAL-1 (closed square), and binding of synthesized oxLig-1-liposomes in the presence of both β2-GPI and WB-CAL-1 (closed circle). Data are indicated as the mean ± SD of triplicate samples.
A monolayer of J774.A1 cells was incubated for 2 hours at 4° C. with Celgrosser-P medium containing [^3H]-labeled liposomes (containing a predetermined ligand, 50 nmol lipid/well). DPPS-containing liposomes (open squares), oxLig-1-containing liposomes (closed squares), oxLig-2-containing liposomes (closed circles), and 13-COOH-7KC-containing liposomes (closed triangles). Data are indicated as mean± SD of triplicate samples.
A monolayer of J774.A1 cells was incubated for 2 hours at 4° C. with Celgrosser-P medium containing [^3H]-labeled liposomes (containing a predetermined ligand (30 mmol %), 50 nmol lipid/well) and in the presence (black bars) or absence (white bars) of β2-GPI (200 μg/mL) and WB-CAL-1 ([…]).
A monolayer culture of murine macrophage-like cells (J774A.1) obtained from Riken Cell Bank (Tsukuba) was maintained in RPMI 1640 medium supplemented with 10% fetal carf serum (FCS). For binding experiments, the cells (8×10^5 cells/mL, RPMI1640) were dispensed in an amount of 1 mL/well into a 12-well culture plate (Sumitomo Bakelite Co., Ltd.) and were incubated for 24 hours at 37° C., then the culture broth was replaced with Celgrosser-P medium (Sumitomo Pharmaceutical Co.). After one hour of preincubation at 37° C., 50 μL of liposomes (50 nmol lipid/well) with or without β2-GPI (200 μg/mL) and WB-CAL-1 (100 μg/mL) were added to each culture, and the cells were incubated at 4° C. and/or 37° C. The wells were next washed with chilled PBS, and the cells were lysed by adding 1 mL of 0.1N NaOH. An aliquot was taken for determination of cellular proteins and of radioactivity associated with the cells. Protein concentration was determined in a manner as described above.

SMILES: CC(C)CCC[C@@H](C)[C@H]1CC[C@H]2[C@@H]3C(=O)C=C4C[C@@H](OC(=O)CCCCCCCC(=O)O)CC[C@]4(C)[C@H]3CC[C@]12C [oxLig-1, 9-oxo-9-(7-ketocholest-5-en-3β-yloxy)nonanoic acid]
- Binding of β2-GPI-dependent aCL, WB-CAL-1 (WB-CAL-1; Experiment 1, Absorbance, mean ± SD, n = 3, solid-phase lipid, β2-GPI 15 μg/mL): 1.035 ± 0.062
- WB-CAL-1 binding, No treatment (WB-CAL-1; absorbance at 490 nm, mean ± SD (n = 3), solid-phase ligand not methylated): 0.945 +/− 0.068
- Binding of β2-GPI-dependent aCL, APS-1 (APS-1): 1.130 ± 0.177
- binding of the anti-β2-GPI autoantibodies (WB-CAL-1 and EY2C9) to solid-phase ligand (anti-β2-GPI antibodies; ligand-coated plate): significant binding
- cross-reaction of autoantibodies derived from APS with β2-GPI complexed with lipid (anti-β2-GPI antibodies): cross-reacted
- direct binding of liposomes to macrophages (J774A.1 cells; J774A.1 cells, 2 hours at 4° C., 50 nmol lipid/well, without β2-GPI and antibody, result in words): relatively low or negligible small
- uptake of ligand-containing liposomes to J774A.1 cells in the presence of both β2-GPI and WB-CAL-1 (J774A.1 cells; liposomes containing the ligand, compared with cholesteryl linoleate-liposomes (control), FIG. 20, result in words): significantly enhanced
- ligand concentration in liposomes at which binding to macrophages reached almost plateau (J774A.1 cells; synthesized oxLig-1-liposomes, J774A.1 cells): 10 mol %
